The source of these data is PubChem BioAssay (NCI).

Common to all, as to assay: NCI-60 cell line screen, 48 h
The test system of assay [1] is BT-549 breast.
Assay [2] concerns HS 578T breast.
Assay [3] concerns OVCAR-4 ovarian.
In assay [4] the test system is NCI-H460 lung.
Assay [5] relates to SK-MEL-2 melanoma.
Assay [6] has as its system EKVX NSCLC.
For assay [7], the system named is SK-MEL-5 melanoma.
Assay [8] concerns SNB-75 CNS.
The subject of assay [9] is SK-MEL-28 melanoma.
The subject of assay [10] is SN12C renal.
Assay [11] relates to SW-620 colon.
Assay [12] has as its system A498 renal.
In assay [13] the test system is MDA-MB-231 breast.
Assay [14] has as its system KM12 colon.
Assay [15] deals with UO-31 renal.
Assay [16] concerns UACC-62 melanoma.
Assay [17] has as its system SR leukemia.

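Interpolation was linear, between the two tested concentrations surrounding the appropriate level; five concentrations were tested over 48 hours in 96-well plates. At the TGI there is no net growth.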

On to `C=CCN(c1cc(O)c2c(c(C)cn2S(=O)(=O)c2ccccc2)c1[N+](=O)[O-])S(C)(=O)=O`, for which the TGI in assay [1], in assay [2], in assay [3], in assay [4], in assay [5] and in [6] was more than 100 µM in each case. Besides, the TGI in [7], in [8], in [9], in [10], in assay [11] and in assay [12] was more than 100 µM throughout. Besides, the TGI in [13], in [14] and in assay [15] was more than 100 µM in each case.

In the case of `O[C@@H]1[C@H](OC2c3ccccc3-c3ccccc32)[C@H](OCc2ccccc2)[C@@H]2OC[C@H]1O2`, the TGI in assay [1], in [2], in assay [3], in [5], in [6] and in [7] was more than 100 µM in each case. Besides, the TGI in [9], in assay [10], in assay [11], in assay [12], in assay [13] and in assay [14] was more than 100 µM in each case. Moreover, the TGI in [15] and in [16] was more than 100 µM each time.

Consider `C#CCN(C(=O)C(F)(F)F)C(/C=C\C(=O)OC)(C(=O)OCC)C(=O)OCC`, for which the TGI in [1], in [2], in assay [3], in [4], in assay [5] and in [6] was more than 100 µM throughout. Besides, the TGI in assay [7], in [8], in assay [9], in [10], in [11] and in assay [12] was more than 100 µM in each case. For the same compound, the TGI in assay [13], in assay [14], in assay [15] and in assay [16] was more than 100 µM throughout.

Turning to `COC(=O)/C(=N\N)C(C(=O)C(=O)Nc1cc(Cl)ccc1Cl)c1nc2ccc([N+](=O)[O-])cc2[nH]c1=O` (stereo unspecified), the TGI in assay [1], in assay [2], in assay [3], in assay [4], in assay [5] and in assay [6] was more than 100 µM throughout. The TGI in [7], in assay [8], in assay [9], in assay [10], in assay [11] and in assay [12] was more than 100 µM each time. Besides, the TGI in assay [13], in assay [14], in [15] and in [16] was more than 100 µM throughout.

For the compound `COc1ccc(OC/C(N)=N/NC(=O)c2ccncc2)cc1`, the TGI in assay [1], in assay [2], in assay [3], in assay [4], in assay [5] and in assay [6] was more than 100 µM throughout. Further, the TGI in assay [8], in assay [9], in assay [10], in assay [11], in [12] and in assay [13] was more than 100 µM each time. For the same compound, the TGI in [14] and in [16] was more than 100 µM each time.

With `O=C(c1c(F)c(F)c(F)c(F)c1F)n1c(=S)n(C(=O)c2c(F)c(F)c(F)c(F)c2F)c2ccccc21`, the TGI in assay [1], in assay [2], in assay [17], in [3], in assay [4] and in [5] was more than 100 µM in each case. In addition, the TGI in [7], in assay [8], in assay [9], in assay [10], in [11] and in [13] was more than 100 µM throughout. For the same compound, the TGI in assay [14], in assay [15] and in assay [16] was more than 100 µM in each case.

On to `N/C(CCSCCSCC/C(N)=N\O)=N\O`, for which the TGI in assay [1], in assay [2], in assay [17], in assay [3], in assay [4] and in [6] was more than 100 µM each time. Besides, the TGI in assay [7], in assay [8], in assay [9], in [10], in assay [11] and in assay [13] was more than 100 µM in each case. Moreover, the TGI in [14], in [15] and in assay [16] was more than 100 µM in each case.

Turning to `CC(=O)Nc1nc2c(=O)c3ccccc3sc2s1`, the TGI in [1], in [2], in assay [4], in assay [5], in [6] and in [7] was more than 100 µM throughout. For the same compound, the TGI in [8], in assay [10], in [12], in assay [13], in assay [14] and in assay [15] was more than 100 µM throughout. The compound further returned a TGI in [16] of more than 100 µM.

Turning to `O=C(NC1CCCCC1)c1n[nH]nc1Cl`, the TGI in assay [1], in assay [2], in [3], in [4], in assay [5] and in [6] was more than 100 µM throughout. In addition, the TGI in assay [7], in assay [9], in assay [10], in assay [11], in assay [12] and in assay [13] was more than 100 µM each time. The TGI in assay [14], in assay [15] and in [16] was more than 100 µM each time.

With `CO/C(N)=C(\C#N)N=Cc1ccsc1`, the TGI was 69.7 µM in assay [1]; more than 100 µM in [2]; more than 100 µM in assay [3]; more than 100 µM in assay [4]; more than 100 µM in [5]; more than 100 µM in assay [6]. For the same compound, the TGI in assay [7], in assay [8], in [9], in assay [10], in assay [11] and in [12] was more than 100 µM throughout. Further, the TGI in assay [13], in assay [14], in assay [15] and in assay [16] was more than 100 µM each time.

With `CC(C)(C)n1c(=O)n2c(-c3ccccc3)c(-c3ccccc3)n2c1=O`, the TGI in assay [1] was more than 100 µM; in [2] it was more than 100 µM; in [3], more than 100 µM; in assay [4], more than 100 µM; in assay [5] it was 85.3 µM; in [6] it was more than 100 µM. Besides, the TGI in assay [7], in assay [8], in [9], in [10], in assay [11] and in assay [12] was more than 100 µM in each case. Further, the TGI in [13], in assay [14], in [15] and in assay [16] was more than 100 µM in each case.

Take `Clc1ccc(C(OCn2ccnc2)c2nc3ccccc3[nH]2)c(Cl)c1` (stereo unspecified): the TGI in assay [1] is 81.7 µM; in [2] it was more than 100 µM; in [3], more than 100 µM; in assay [4] it was more than 100 µM; in assay [5] it was more than 100 µM; in [6], more than 100 µM. The TGI in assay [7] is 35.2 µM; in assay [8], more than 100 µM; in [9] it was more than 100 µM; in assay [10] it was more than 100 µM; in assay [11] it was more than 100 µM; in assay [12], more than 100 µM. In addition, the TGI was more than 100 µM in assay [13], more than 100 µM in assay [14], 92.1 µM in assay [15] and more than 100 µM in assay [16].

For `COc1cc(Nc2cc(Cl)cc(Cl)c2)nc(N)n1`, the TGI in assay [1] stood at 40.8 µM; in assay [2], 57 µM; in assay [3], 54 µM; in assay [4], 34 µM; in assay [5], 32.1 µM; in assay [6], 69 µM. The TGI in assay [7] was 29.7 µM; in [8], 43.6 µM; in assay [10] it was 40.1 µM; in assay [11] it was 59.8 µM; in assay [12], 39.9 µM; in assay [13], 43.8 µM. Further, the TGI in [14] worked out at 37 µM; in [15], 31.2 µM; in [16], 33.4 µM.

As to `COC(=O)c1c(C)cccc1C1CN=NC12Cc1cc(C)c(C)cc1C2=O` (stereo unspecified), the TGI in assay [1], in [2], in [3], in assay [4], in [5] and in [6] was more than 100 µM each time. Further, the TGI is 46.3 µM in assay [7]; more than 100 µM in assay [8]; more than 100 µM in assay [9]; more than 100 µM in assay [10]; more than 100 µM in [11]; more than 100 µM in assay [13]. Also, the TGI in assay [14], in assay [15] and in assay [16] was more than 100 µM throughout.

For `CCOC(=O)c1nc2ccc(C(F)(F)F)cc2nc1Oc1ccc(OC)cc1`, the TGI in assay [1], in assay [2], in assay [3], in assay [4], in [5] and in assay [6] was more than 100 µM throughout. The TGI in assay [7], in assay [8], in [9], in assay [10], in assay [11] and in assay [12] was more than 100 µM throughout. Also, the TGI in assay [13], in assay [14], in assay [15] and in assay [16] was more than 100 µM in each case.

Take `Cc1nn(C(=O)Cc2ccccc2)c2c1C(c1ccc(/C=C/c3ccccc3)cc1)SC(N)=N2` (stereo unspecified): the TGI in assay [1], in assay [2], in [4], in assay [6], in assay [7] and in assay [8] was more than 100 µM throughout. Also, the TGI in [9], in assay [10], in assay [11], in assay [12], in assay [13] and in [14] was more than 100 µM throughout. Also, the TGI in [15] and in assay [16] was more than 100 µM throughout.

As for `Cc1cccc(C)c1NC(=O)C(=O)CC(=O)c1sc(Nc2c(C)cccc2C)nc1C`, the TGI in assay [1], in assay [2], in assay [3], in [4], in assay [5] and in assay [6] was more than 100 µM each time. For the same compound, the TGI in assay [8], in assay [10], in assay [11], in assay [12], in assay [13] and in assay [14] was more than 100 µM throughout. Also, the TGI in [15] and in assay [16] was more than 100 µM each time.

Turning to `COC(=O)C(=O)C(C(=O)C(=O)Nc1cccc(OC)c1)c1nc2ccc(Cl)cc2[nH]c1=O` (stereo unspecified), the TGI in [1], in [2], in assay [3], in assay [4], in [5] and in assay [6] was more than 100 µM each time. Besides, the TGI in assay [7], in assay [8], in assay [9], in assay [10], in assay [11] and in [12] was more than 100 µM in each case. The TGI in assay [13], in assay [14], in assay [15] and in assay [16] was more than 100 µM throughout.
